Measured values: patent publication US20250171433A1, “A1H-BENZO[C][1,2]THIADIAZINE-2,2-DIOXIDES BEARING HETEROCYCLIC LINKERS AS SELECTIVE HISTONE DEACETYLASE 6 INHIBITORS” (Georgetown University, priority 2022, published 2025)
Read-outs that look alike come from different tables or passages of the source.

Columns and labels:
[1] = Oral PK study with brain and sciatic nerve exposure; type: in vivo, mice
[2] = Free fraction in human plasma; type: in vitro ADME
[3] = system: other HDAC subtypes; test: Inhibition of other HDAC subtypes at a single concentration; type: biochemical, human
Protocol: The HDAC1, 2, 4, 5, 6, 7, 8, 9, 10, and 11 assays used isolated recombinant human protein; HDAC3/NcoR2 complex was used for the HDAC3 assay. Substrate for HDAC1, 2, 3, 6, 10, and 11 assays is a fluorogenic peptide from p53 residues 379-382 (RHKKAc); substrate for HDAC8 is fluorogenic diacyl peptide based on residues 379-382 of p53 (RHKAcKAc). Acetyl-Lys(trifluoroacetyl)-AMC substrate was used for HDAC4, 5, 7, and 9 assays. Compounds were dissolved in DMSO and tested in 10-dose IC50 mode with 3-fold serial dilution starting at 30 μM. Control compound trichostatin A (TSA) was tested in a 10-dose IC50 mode with 3-fold serial dilution starting at 5 μM. IC50 values were extracted by curve-fitting the dose/response slopes. Assays were performed in duplicate, and IC50 values are an average of data from both experiments.

[4] = Clearance in mouse microsomes; type: in vitro ADME
[5] = Free fraction in mouse plasma; type: in vitro ADME
[6] = Mice iv PK; conditions: mouse, in vivo
[7] = Clearance in human microsomes; type: in vitro ADME
[8] = Chemical stability at pH 7.4 and 2; type: physicochemical
[9] = target: T1, HDAC1 (Homo sapiens, UniProt Q13547); test: HDAC enzyme activity inhibition assay, HDAC1; type: biochemical; conditions: DRC
T1 construct: host or cells: baculovirus / Sf9 cells
Protocol: (§1) The effectiveness, or potency, of a present HDAC6I with respect to inhibiting the activity of an HDAC is measured by an IC50 value. The quantitative IC50 value indicates the concentration of a particular compound that is needed to inhibit the activity of an enzyme by 50% in vitro. Stated alternatively, the IC50 value is the half maximal (50%) inhibitory concentration of a compound tested using a specific enzyme, e.g., HDAC, of interest.
(§2) The HDAC1, 2, 4, 5, 6, 7, 8, 9, 10, and 11 assays used isolated recombinant human protein; HDAC3/NcoR2 complex was used for the HDAC3 assay. Substrate for HDAC1, 2, 3, 6, 10, and 11 assays is a fluorogenic peptide from p53 residues 379-382 (RHKKAc); substrate for HDAC8 is fluorogenic diacyl peptide based on residues 379-382 of p53 (RHKAcKAc). Acetyl-Lys(trifluoroacetyl)-AMC substrate was used for HDAC4, 5, 7, and 9 assays. Compounds were dissolved in DMSO and tested in 10-dose IC50 mode with 3-fold serial dilution starting at 30 μM. […]
(§3) All IC50 values are automatically calculated using the GraphPad Prism version 5 and Equation of Sigmoidal dose-response (variable slope): […]
(§4) HDAC Activity Assays: HDAC assay is performed using fluorescently-labeled acetylated substrate, which comprises an acetylated lysine side chain. […] HDACs 1 and 6 were expressed as full length fusion proteins. […]

[10] = Kinetic solubility; type: physicochemical
[11] = target: T2, hHDAC6 (Homo sapiens, UniProt Q9UBN7); test: HDAC enzyme activity inhibition assay, HDAC6; type: biochemical; conditions: duplicate, performed by DRC; read-out: potency at hHDAC6
T2 construct: host or cells: baculovirus / Sf9 cells
T2 sequence (Q9UBN7 1-1215): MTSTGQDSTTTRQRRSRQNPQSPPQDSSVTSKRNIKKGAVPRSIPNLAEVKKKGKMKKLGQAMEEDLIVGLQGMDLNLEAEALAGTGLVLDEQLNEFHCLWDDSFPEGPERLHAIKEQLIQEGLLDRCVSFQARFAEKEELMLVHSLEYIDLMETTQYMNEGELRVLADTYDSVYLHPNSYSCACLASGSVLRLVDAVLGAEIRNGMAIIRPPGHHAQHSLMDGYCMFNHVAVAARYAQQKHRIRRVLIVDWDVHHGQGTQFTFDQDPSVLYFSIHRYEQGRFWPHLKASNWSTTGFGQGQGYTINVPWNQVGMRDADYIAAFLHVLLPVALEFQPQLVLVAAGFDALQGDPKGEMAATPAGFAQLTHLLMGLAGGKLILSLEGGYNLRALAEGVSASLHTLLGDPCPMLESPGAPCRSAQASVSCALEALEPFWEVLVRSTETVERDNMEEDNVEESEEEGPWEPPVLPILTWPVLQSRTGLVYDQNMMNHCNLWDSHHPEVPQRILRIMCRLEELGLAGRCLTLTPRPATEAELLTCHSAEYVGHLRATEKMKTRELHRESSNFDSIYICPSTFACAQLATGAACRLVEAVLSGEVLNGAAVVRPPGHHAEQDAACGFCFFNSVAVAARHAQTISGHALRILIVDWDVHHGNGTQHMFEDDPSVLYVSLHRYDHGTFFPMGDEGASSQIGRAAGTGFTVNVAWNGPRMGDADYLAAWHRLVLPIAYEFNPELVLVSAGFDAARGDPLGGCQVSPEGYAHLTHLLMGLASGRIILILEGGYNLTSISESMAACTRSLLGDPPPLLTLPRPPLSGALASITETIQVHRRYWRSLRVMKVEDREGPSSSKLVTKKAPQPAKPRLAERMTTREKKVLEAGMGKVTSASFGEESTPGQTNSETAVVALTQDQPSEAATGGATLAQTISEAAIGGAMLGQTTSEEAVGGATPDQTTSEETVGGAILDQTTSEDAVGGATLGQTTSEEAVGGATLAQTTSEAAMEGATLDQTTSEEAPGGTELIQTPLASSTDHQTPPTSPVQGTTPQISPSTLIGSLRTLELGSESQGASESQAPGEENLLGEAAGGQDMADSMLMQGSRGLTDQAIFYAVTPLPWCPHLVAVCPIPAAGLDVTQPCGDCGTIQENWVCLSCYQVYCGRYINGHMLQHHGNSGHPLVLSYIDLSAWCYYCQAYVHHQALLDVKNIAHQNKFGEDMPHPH
Protocol: as §1, §2, §3, §4

[12] = Permeability and efflux; type: in vitro ADME
[13] = Reported functional activity
[14] = mouse, plasma, oral PK study, gavage

T1 sequence (Q13547 whole entry): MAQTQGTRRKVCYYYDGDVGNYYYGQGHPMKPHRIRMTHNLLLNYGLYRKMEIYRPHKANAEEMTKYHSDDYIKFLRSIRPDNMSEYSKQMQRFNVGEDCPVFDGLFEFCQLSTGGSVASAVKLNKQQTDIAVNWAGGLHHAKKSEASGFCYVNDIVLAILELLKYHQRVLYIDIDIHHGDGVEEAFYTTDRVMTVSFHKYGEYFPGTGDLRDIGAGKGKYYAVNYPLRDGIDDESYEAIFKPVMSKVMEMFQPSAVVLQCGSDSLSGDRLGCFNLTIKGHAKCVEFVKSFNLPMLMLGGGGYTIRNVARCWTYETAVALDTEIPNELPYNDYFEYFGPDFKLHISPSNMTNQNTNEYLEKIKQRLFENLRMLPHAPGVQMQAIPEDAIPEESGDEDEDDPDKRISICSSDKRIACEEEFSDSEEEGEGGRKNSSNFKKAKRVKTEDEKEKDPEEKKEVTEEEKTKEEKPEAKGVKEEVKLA

Question: What does the source list for `O=S1(=O)CCc2ccccc2N1Cc1ccc(-c2nnc(C(F)F)o2)cn1` [Compound 1, 1-[[5-[5-(Difluoromethyl)-1,3,4-axadiazol-2-yl)pyridin-2-yl]methyl]-3,4-dihydro-1H-benzo[c][1,2]thiazine-2,2-dioxide]?
Answer: Kp at 1 h ([1]; mouse, brain and plasma, oral, @1 h, read-out: Brain/Plasma ratio): 0.8; Kp at 4 h ([1]; mouse, brain and plasma, oral, @4 h, read-out: Brain/Plasma ratio): 1.2; concentrations detected in the brain and the sciatic nerve ([1]; mouse, in vivo): moderate; bioavailability ([1]; mouse, plasma, oral PK study): 14.7%; half-life ([1]; mouse, plasma, oral PK study): 2.2 h; Cmax [1, 14]: 456 ng/mL; Tmax [1, 14]: 0.25 h; MRT ([1]; mouse, plasma, oral PK study, read-out: mean residence time): 3.14 h; Kp at 1 h ([1]; mouse, sciatic nerve and plasma, oral, at 1 h, read-out: Sciatic nerve/plasma ratio): 0.4; clearance ([1]; oral PK study): medium; volume of distribution ([1]; oral PK study): medium; free fraction in human plasma [2]: high; % inh. at 10 μM versus other HDAC subtypes [3]: < 20%; clearance in mouse microsomes [4]: higher; microsomal CLint ([4]; mouse, compared with set criteria in Schedule B, species not given): > 50 µL/min/mg; free fraction in mouse plasma [5]: high; clearance [6]: 44.9 mL/min/kg; clearance in human microsomes [7]: low; chemical stability at pH 2 ([8]; pH 2): chemically stable; chemical stability at pH 7.4 ([8]; pH 7.4): chemically stable; selectivity against HDAC1 [9]: full selectivity; kinetic solubility [10]: high; IC50 [11]: 29 nM; efflux [12]: low; permeability [12]: high; reported functional activity [13]: 0.76 µM
